Data from PubChem BioAssay AID200 (DTP/NCI, 2004).
Values joined by “and” are separate entries in the source; they are usually repeats but may differ in a detail not shown here. Equal entries are not always repeated. Inconclusive results and toxic doses are left out. Where a SMILES comes first, the peptide text is derived from it.

Test system: B6C3F1 mice, B16 melanoma ip, median survival T/C
Assay: NCI In Vivo Anticancer Drug Screen. Data for tumor model B16 Melanoma (intraperitoneal) in B6C3F1 mice
Details: endpoint: median survival time, schedule: Q01DX009 (ip), higher = longer survival
Protocol: The antitumor activity of compounds was measured in mice bearing transplantable tumors. Survival or tumor size were measured and the results are expressed as the measurement made in the treated group (T) divided by the measurement made in the vehicle treated control group (C). The tumor model used in this assay is B16 Melanoma (intraperitoneal) in B6C3F1 mice

[1] = dose: 6.25 mg/kg/injection, vehicle: saline
[2] = dose: 12.5 mg/kg/injection, vehicle: saline
[3] = dose: 25.0 mg/kg/injection, vehicle: saline
[4] = dose: 50.0 mg/kg/injection, vehicle: saline
[5] = dose: 100.0 mg/kg/injection, vehicle: saline
[6] = dose: 200.0 mg/kg/injection, vehicle: saline
[7] = dose: 6.25 mg/kg/injection, vehicle: saline with Tween-80
[8] = dose: 12.5 mg/kg/injection, vehicle: saline with Tween-80
[9] = dose: 25.0 mg/kg/injection, vehicle: saline with Tween-80
[10] = dose: 50.0 mg/kg/injection, vehicle: saline with Tween-80

Compound: OCC1(CO)COC2(CCCCC2)N1
- T/C [1]: 95 % of control
- T/C [2]: 119 % of control and 96 % of control and 103 % of control
- T/C [3]: 114 % of control and 102 % of control and 104 % of control
- T/C [4]: 114 % of control and 96 % of control and 104 % of control
- T/C [5]: 112 % of control and 94 % of control and 104 % of control
- T/C [6]: 111 % of control and 99 % of control
- T/C (dose: 400.0 mg/kg/injection, vehicle: saline): 109 % of control and 93 % of control

Compound: C/C=C/c1cc2c(c(=O)o1)C(=O)[C@@H](O)[C@H](C)O2
- T/C [7]: 98 % of control
- T/C [8]: 103 % of control
- T/C [9]: 100 % of control
- T/C [10]: 118 % of control
- T/C (dose: 100.0 mg/kg/injection, vehicle: saline with Tween-80): 109 % of control
- T/C (dose: 200.0 mg/kg/injection, vehicle: saline with Tween-80): 103 % of control

Compound: CCC(C)C(NC(=O)CN)C(=O)O (stereo unspecified) (HELM PEPTIDE1{G.[CCC(C)C(N[*:1])C(=O)O]}$$$$V2.0)
- T/C [4]: 92 % of control
- T/C [5]: 92 % of control
- T/C [6]: 92 % of control

Compound: CSCS(=O)C[C@H](CO)NC(=O)/C=C/c1c(C)[nH]c(=O)[nH]c1=O (stereo partly specified)
- T/C (dose: 0.03 mg/kg/injection, vehicle: saline): 100 % of control and 104 % of control
- T/C (dose: 0.06 mg/kg/injection, vehicle: saline): 112 % of control and 102 % of control
- T/C (dose: 0.12 mg/kg/injection, vehicle: saline): 98 % of control and 102 % of control
- T/C (dose: 0.25 mg/kg/injection, vehicle: saline): 118 % of control and 98 % of control
- T/C (dose: 0.5 mg/kg/injection, vehicle: saline): 102 % of control
- T/C (dose: 1.0 mg/kg/injection, vehicle: saline): 98 % of control

Compound: CCOC(OCC)C(=O)OCC(=O)[C@]1(O)Cc2c(O)c3c(c(O)c2[C@@H](OC2CC(N)C(O)C(C)O2)C1)C(=O)c1c(OC)cccc1C3=O (stereo partly specified)
- T/C (dose: 0.12 mg/kg/injection, vehicle: water): 155 % of control
- T/C (dose: 0.13 mg/kg/injection, vehicle: water): 165 % of control
- T/C (dose: 0.25 mg/kg/injection, vehicle: water): 177 % of control and 182 % of control
- T/C (dose: 0.5 mg/kg/injection, vehicle: water): 208 % of control and 285 % of control
- T/C (dose: 1.0 mg/kg/injection, vehicle: water): 189 % of control and 285 % of control
- T/C (dose: 2.0 mg/kg/injection, vehicle: water): 212 % of control and 285 % of control
- T/C (dose: 4.0 mg/kg/injection, vehicle: water): 285 % of control

Compound: O=C1C(O)=C(c2ccccc2)C(=O)C(O)=C1c1ccccc1
- T/C (dose: 3.12 mg/kg/injection, vehicle: saline): 109 % of control
- T/C [1]: 100 % of control
- T/C [2]: 91 % of control and 101 % of control
- T/C [3]: 109 % of control and 117 % of control
- T/C [4]: 108 % of control and 112 % of control

Compound: N=C(N)SCc1c2ccccc2c(CSC(=N)N)c2ccccc12
- T/C [1]: 156 % of control
- T/C [2]: 181 % of control
- T/C [3]: 228 % of control
- T/C [4]: 320 % of control

Compound: BrCC[Se]c1ccccc1
- T/C (dose: 3.12 mg/kg/injection, vehicle: saline with Tween-80): 113 % of control and 104 % of control
- T/C [7]: 100 % of control
- T/C [8]: 119 % of control and 103 % of control
- T/C [9]: 113 % of control and 100 % of control
- T/C [10]: 95 % of control and 103 % of control

Compound: CN=C(NC)c1ccc(NC(=O)/C=C\c2ccc(/C=C/C(=O)Nc3ccc(C(=NC)NC)cc3)cc2)cc1
- T/C (dose: 1.56 mg/kg/injection, vehicle: Klucel (hydroxypropylcellulose) (HPC)): 110 % of control
- T/C (dose: 3.12 mg/kg/injection, vehicle: Klucel (hydroxypropylcellulose) (HPC)): 107 % of control
- T/C (dose: 6.25 mg/kg/injection, vehicle: Klucel (hydroxypropylcellulose) (HPC)): 90 % of control
